From PMC4738305, “Metabolism and Disposition of Aditoprim in Swine, Broilers, Carp and Rats” (Scientific Reports, 2016)

Test: Tissue distribution and elimination of total radioactivity (total residues) after oral ^3H-ADP for 7 d
Type: in vivo, carp
Parameters: Ke of total residues: unit not given here
Protocol: (0.1 Ci/g) through oral gavage for 7 consecutive days. All the animals were housed on the basis of their group in the cages or aquaria throughout the whole study period. A group of animals was slaughtered through exsanguination under diethyl ether inhalation of anesthesia in the period of 6 h, 1, 3, 7, 14, and 21 d after the administration. The blood samples were immediately collected into the heparinized tubes and was centrifuged at 1920 × g at 4 °C for 10 min to obtain the plasma. The tissues from the heart, liver, spleen, lung, kidney, craw (broilers), stomach, intestine, fat, skin, muscle, thymus, pancreas, bile, bladder, hair (scale for carp), genital gland, adrenal glands, swim bladder (carp), brain, lymph, and bursa (broilers) were carefully excised and collected. The tissues were thoroughly rinsed with the deionized water to remove the residuary blood, blotted to dryness, and finally to perform the homogenization. In order to avoid cross-contamination the dissecting instruments were washed during the tissue procurements. The blank tissues were collected in order to provide control matrices. The total radioactivity levels in each sample were determined through LSC. The samples extracted from the plasma, bile, and tissues of the liver, kidney, muscle, and fat/skin were analyzed through LC/MS-IT-TOF and v. ARC radiometric detection for metabolite profiling.
Measurements of the total radioactivity in each sample were conducted by Packard Tri-Carb 2900 TR liquid scintillation counter (PerkinElmer Life and Analytical Sciences). The detection time was 10 min for two cycles. The scintillation counter data were automatically corrected for counting efficiency by instrument-stored quench curve which was drawn with a series of sealed quenched […] standards. The actual radioactivity of each sample was calculated by subtracting the background value form the mean radioactivity in two blank samples. All the samples were analyzed in duplicate if the sample size allowed this. If the results were differed by more than 10% from the mean value, the samples were reanalyzed. The samples with LSC counts less than 2-fold of the level of the running background were considered to contain insufficient radioactivity for reliable quantification.
Aliquots of liquid samples (urine, plasma, bile and raised water, 200 μL) were mixed with 10 mL of Ultima Gold^TM scintillation fluid for the direct analysis by LSC. Aliquots of solid samples (feces and tissues, 200 mg) were digested overnight with 2 mL tissue solubilizer at 50 °C in a shaking water bath, followed by adding 200 μL of 0.1 mol/L EDTA-Na and 200 μL of 30% H2O2, and was bathed at 50 °C for 2 h to bleach. The obtained transparent liquid were mixed with 10 mL of scintillation fluid and finally were counted by LSC. The digestion efficiency was determined by using the blank samples spiked with ^3 H standard for digestion, and the measured radioactivity content in the digested samples were adjusted by using the digestion efficiency values.
The concentrations of ADP and/or its metabolites were analyzed by using the following equation: C = L/(2.22 × 10^9 × RM), where C is the concentration of ADP or/and its metabolites (mg/kg), L is the LSC count (dpm), R is the specific activity of the administered dose (0.1 Ci/g), and M is the weight or volume of samples (kg or L). The results are expressed as mean ± SD. The elimination kinetics of terminal phase for ADP and its metabolites were conducted by using the WinNonlin linear regression program (Pharsight corporation, Statistical consultants, Inc., Kentucky, USA).

[3H]c1c(Cc2cnc(N)nc2N)cc(OC)c(N(C)C)c1OC [^3H-ADP]
Concentrations of total residues (carp Heart, 21 d after 5 mg/kg b. w. for 7 days): 0.01 ± 0.00 mg/kg
Ke of total residues (carp Intestine): 0.21
Concentrations of total residues (carp Intestine, 1 d after 5 mg/kg b. w. for 7 days): 5.35 ± 0.51 mg/kg
Concentrations of total residues (carp Intestine, 3 d after 5 mg/kg b. w. for 7 days): 1.85 ± 0.25 mg/kg
Concentrations of total residues (carp Intestine, 7 d after 5 mg/kg b. w. for 7 days): 0.42 ± 0.09 mg/kg
Concentrations of total residues (carp Intestine, 14 d after 5 mg/kg b. w. for 7 days): 0.16 ± 0.06 mg/kg
Ke of total residues (carp Kidney): 0.19
Concentrations of total residues (carp Kidney, 0.25 d after 5 mg/kg b. w. for 7 days): 47.64 ± 9.81 mg/kg
Concentrations of total residues (carp Kidney, 1 d after 5 mg/kg b. w. for 7 days): 8.30 ± 1.02 mg/kg
Concentrations of total residues (carp Kidney, 3 d after 5 mg/kg b. w. for 7 days): 3.83 ± 0.39 mg/kg
Concentrations of total residues (carp Kidney, 7 d after 5 mg/kg b. w. for 7 days): 1.57 ± 0.11 mg/kg
Concentrations of total residues (carp Kidney, 14 d after 5 mg/kg b. w. for 7 days): 0.72 ± 0.10 mg/kg
Concentrations of total residues (carp Kidney, 21 d after 5 mg/kg b. w. for 7 days): 0.10 ± 0.02 mg/kg
Ke of total residues (carp Liver): 0.10
Concentrations of total residues (carp Liver, 0.25 d after 5 mg/kg b. w. for 7 days): 15.59 ± 1.52 mg/kg
Concentrations of total residues (carp Liver, 3 d after 5 mg/kg b. w. for 7 days): 2.53 ± 0.21 mg/kg
Concentrations of total residues (carp Liver, 7 d after 5 mg/kg b. w. for 7 days): 0.40 ± 0.08 mg/kg
Concentrations of total residues (carp Liver, 14 d after 5 mg/kg b. w. for 7 days): 0.30 ± 0.05 mg/kg
Concentrations of total residues (carp Liver, 21 d after 5 mg/kg b. w. for 7 days): 0.09 ± 0.01 mg/kg
Ke of total residues (carp Muscle): 0.23
Concentrations of total residues (carp Muscle, 0.25 d after 5 mg/kg b. w. for 7 days): 2.26 ± 0.62 mg/kg
Concentrations of total residues (carp Muscle, 1 d after 5 mg/kg b. w. for 7 days): 1.96 ± 0.48 mg/kg
Concentrations of total residues (carp Muscle, 3 d after 5 mg/kg b. w. for 7 days): 0.96 ± 0.10 mg/kg
Concentrations of total residues (carp Muscle, 7 d after 5 mg/kg b. w. for 7 days): 0.43 ± 0.09 mg/kg
Concentrations of total residues (carp Muscle, 14 d after 5 mg/kg b. w. for 7 days): 0.08 ± 0.00 mg/kg
Ke of total residues (carp Roe): 0.16
Concentrations of total residues (carp Roe, 0.25 d after 5 mg/kg b. w. for 7 days): 4.74 ± 1.03 mg/kg
Concentrations of total residues (carp Roe, 1 d after 5 mg/kg b. w. for 7 days): 3.86 ± 0.76 mg/kg
Concentrations of total residues (carp Roe, 3 d after 5 mg/kg b. w. for 7 days): 2.24 ± 0.36 mg/kg
Concentrations of total residues (carp Roe, 7 d after 5 mg/kg b. w. for 7 days): 0.85 ± 0.40 mg/kg
Concentrations of total residues (carp Roe, 14 d after 5 mg/kg b. w. for 7 days): 0.47 ± 0.13 mg/kg
Concentrations of total residues (carp Roe, 21 d after 5 mg/kg b. w. for 7 days): 0.09 ± 0.01 mg/kg
Ke of total residues (carp Scales): 0.24
Concentrations of total residues (carp Scales, 0.25 d after 5 mg/kg b. w. for 7 days): 2.59 ± 0.32 mg/kg
Concentrations of total residues (carp Scales, 1 d after 5 mg/kg b. w. for 7 days): 2.01 ± 0.45 mg/kg
Concentrations of total residues (carp Scales, 3 d after 5 mg/kg b. w. for 7 days): 0.80 ± 0.04 mg/kg
Concentrations of total residues (carp Scales, 7 d after 5 mg/kg b. w. for 7 days): 0.29 ± 0.07 mg/kg
Concentrations of total residues (carp Scales, 14 d after 5 mg/kg b. w. for 7 days): 0.06 ± 0.01 mg/kg
Ke of total residues (carp Skin): 0.29
Concentrations of total residues (carp Skin, 0.25 d after 5 mg/kg b. w. for 7 days): 3.66 ± 0.62 mg/kg
Concentrations of total residues (carp Skin, 1 d after 5 mg/kg b. w. for 7 days): 2.82 ± 0.91 mg/kg
Concentrations of total residues (carp Skin, 3 d after 5 mg/kg b. w. for 7 days): 1.48 ± 0.16 mg/kg
Concentrations of total residues (carp Skin, 7 d after 5 mg/kg b. w. for 7 days): 0.87 ± 0.17 mg/kg
Concentrations of total residues (carp Skin, 14 d after 5 mg/kg b. w. for 7 days): 0.07 ± 0.01 mg/kg
Ke of total residues (carp Spleen): 0.23
Concentrations of total residues (carp Spleen, 0.25 d after 5 mg/kg b. w. for 7 days): 63.23 ± 2.89 mg/kg
Concentrations of total residues (carp Spleen, 1 d after 5 mg/kg b. w. for 7 days): 27.12 ± 4.89 mg/kg
Concentrations of total residues (carp Spleen, 3 d after 5 mg/kg b. w. for 7 days): 8.17 ± 0.59 mg/kg
Concentrations of total residues (carp Spleen, 7 d after 5 mg/kg b. w. for 7 days): 0.73 ± 0.17 mg/kg
Concentrations of total residues (carp Spleen, 14 d after 5 mg/kg b. w. for 7 days): 0.25 ± 0.05 mg/kg
Concentrations of total residues (carp Spleen, 21 d after 5 mg/kg b. w. for 7 days): 0.03 ± 0.00 mg/kg
